One data set relates to microbes on skin. To be noted: general statement, no test given; cited from earlier work.
Data set [1] in a line: Humectant remaining bound to snake skin after washing. Set-up: species or system greentree python snake. Here is the method:
In the case of (b), 10 μl of ETS was also applied immediately after solution (b).

The test system of data set [2] is normal skin bacteria (results for S. aureus reported). Nature of the data set: Quantitation of microbial growth on human skin (expanded flora). The format is in vivo. Here is the method: The third test involved growing normal skin bacteria by covering the skin with an occlusive dressing such as Saran Wrap (this is referred to as expanding the flora). Prior to expanding the flora, the skin test sites were treated with the test or control solutions as described above. The flora was then expanded for 24 hours, followed by quantitating the bacteria growth. This was done by washing an area of skin with liquid growth medium and spreading the washing on an agar plate. After the bacteria grew the number colonies were counted (Table 8).
(§1) Each result was averaged for samples.

Data set [3] has as its system S. aureus. Nature of the data set: Quantitation of microbial growth in solution mixing with treated snake skin patch. The format is cell-based. To be noted: for Microbe Growth/Solution after 5 washes / Microbe Growth/Solution after 10 washes / Microbe Growth/Solution after 15 washes: S. aureus, treated snake skin, 24 hours. Here is the method:
In the second test, tubes containing liquid growth medium were inoculated with bacteria, and then the test disk was placed in the tube. The bacteria was allowed to grow for 24 hours and then the number of bacteria per ml was quantified either by light reflectance or by removing a small volume and streaking on an agar plate. The latter method was followed by allowing the bacteria to grow and then counting the colonies (Table 7).
as §1

Data set [4] concerns S. aureus. As to the kind of experiment: Zone of inhibition on agar of treated snake skin patches. To be noted: 24 hours. The format is cell-based. Here is the method:
The patches of snake skin were assayed for antimicrobial activity using 3 methods: (1) zone of antimicrobial activity on agar due to diffusion, (2) quantitation of microbial growth in solution mixing with patch, and (3) quantitation of microbial growth on human skin. The first method was a standard zone of inhibition study in which the bacteria was streaked onto an agar plate, the disk containing the test material was placed on the plate, and then the bacteria were allowed to grow for 24 hours.
as §1

The procedure of data set [5]: Ten microliters of each of (a), (b), (c), (d), 2-ethyl-1,3-hexanediol (EHD), N,N-diethyl-m-toluamide (DT), or N,N-diethoxy-m-toluamide (DOT) were applied to separate 7 cm^2 patches of greentree python snake skin once daily for 3 days. At the end of the application period, the patches were washed five times each day for three days with 20 μl of 50/50 ethanol/water using a 3 cm diameter cylinder to enable collection of the washings. The amount of insect repellent washed off was quantified using reverse phase HPLC, C^14 radiocounting or AT/FTIR. The percentage remaining bound after 5, 10, and 15 washes was designated as 100×(amount applied-amount washed off)/(amount applied) and was averaged for 5 samples.

Details of data set [6]: species or system greentree python snake. Here is the method: Ten microliters (a), (b), (c), (d), AT or ethanol/cyclomethicone vehicle was applied separately to a 7 cm^2 patch of greentree python snake skin once daily for 3 days or to a 7 cm^2 patch of shaved rabbit skin. At the end of the application period, the patches were washed five times each day for three days with 20 μl of 50/50 ethanol/water using a 3 cm diameter cylinder to enable collection of the washings. The amount of skin protectant washed off was quantitated using reverse phase HPLC, C^14 radiocounting or AT/FTIR. The percentage remaining bound after 5, 10, and 15 washes was designated as 100×(amount applied-amount washed off)/(amount applied) and was averaged for the 5 samples.

The nature of data set [7]: Modified Draise test: erythema by salicylic acid on treated rabbit skin. The format is in vivo. To be noted: in words, from Table 10. Here is the method:
The skin test on rabbits was essentially a modified Draise test for skin in which unabraded skin was studied on partially occluded sites. The skin irritation study was started following skin treatment by one of the test compounds above. In this test, after the compound was applied to the skin, a known skin irritant, 10 μl of 5% salicylic acid in a 50/50 by volume mixture of ethanol/water, was applied once a day for 3 days. The skin was rated for erythema using the scale of 0--no erythema to 4--severe erythema.

The conditions of data set [8]: by infants; general statement; cited from earlier work.
[9] abbreviates: human skin, flora expanded 24 hours, S. aureus.
[10] abbreviates: snake skin, insect repellent, 50/50 ethanol/water washes.

Read-outs that look alike come from different tables or passages of the source.

As to `Oc1cc(Cl)ccc1Oc1ccc(Cl)cc1Cl` [triclosan, Triclosan], in the data set with microbes on skin, the “antimicrobial effectiveness on skin” value is given as “relatively ineffective”.
Turning to `OCC(O)CO` [GL, Glycerol], in [1], the “% bound after 5 washes” value worked out at 1%, the “% bound after 10 washes” value came out at 0% and the “% bound after 15 washes” value is listed as 0%.
As to `CCO[Si](CCCN)(OCC)OCC` [aminofunctional silane coupling agent, Aminopropyltriethoxysilane], in [2] (in words, from Table 8), the “antibacterial activity on human skin” value is listed as “inhibitory activity on bacterial growth on human skin”. Also, in data set [2] (in words, no data at the place), the “microbial inhibitory activity on the skin” value is on record as “substantial microbial inhibitory activity on the skin”. Further, in the data set on S. aureus [3] (in words, from Table 7), the microbiocidal activity result is “not bactericidal”.
With `[H]/N=C(\N/C(=N/[H])NCCCCCCNC(=N)NC(=N)Nc1ccc(Cl)cc1)Nc1ccc(Cl)cc1` [Chlorhexidene, Chlorhexidine], in the data set with microbes on skin, the “antimicrobial effectiveness on skin” value is on record as “very effective” and the “toxicity / side effects of topical antimicrobial” value was “causes severe skin drying”.
In the case of `O=C(O)CC(O)C(=O)O` (centres unmarked) [MA, Malic acid], in [2] (setting [9]), the “Microbe Growth/on Skin after 5 washes” value is recorded as 10^5 CFU and the “Microbe Growth/on Skin after 15 washes” value is recorded as 10^5 CFU. In addition, in the data set with S. aureus [3], the “Microbe Growth/Solution after 5 washes” value was found to be 0 CFU, the “Microbe Growth/Solution after 10 washes” value is on record as 10^2 CFU and the “Microbe Growth/Solution after 15 washes” value is on record as 10^3 CFU. Besides, in the data set with S. aureus [4], the “Zone of Inhibition after 5 washes” value is recorded as 15 mm, the “Zone of Inhibition after 10 washes” value was determined as 0 mm and the “Zone of Inhibition after 15 washes” value stood at 0 mm.
For `CCON(OCC)C(=O)c1cccc(C)c1` [DOT, N,N-diethoxy-m-toluamide], in [5], the “% bound after 5 washes” value is recorded as 6%, the “% bound after 10 washes” value is reported as 1% and the “% bound after 15 washes” value was determined as 1%.
Take “allantion-mono(triethoxy)siloxy ester [Example 6 (d)]”: in [6], the “% bound after 5 washes” value came to 47%, the “% bound after 10 washes” value was found to be 36% and the “% bound after 15 washes” value stood at 21%.
With `O=C(Nc1ccc(Cl)cc1)Nc1ccc(Cl)c(Cl)c1` [trichlorocarban], the “antimicrobial effectiveness on skin” value in the data set on microbes on skin is “relatively ineffective”.
As for `NC(=O)NC1NC(=O)NC1=O` (centres unmarked) [allantoin, Allantoin], the “adherence to / retention on skin” value in [6] is given as “enhanced when applied with a polymerizing siloxane”. Also, the “protection from skin erythema by salicylic acid” value in data set [7] is listed as “does provide some protection from skin erythema by salicylic acid, this protection is lost if the skin is washed”.
Regarding `[O-][n+]1ccccc1S` [PYR, Pyrithione], in data set [2] (setting [9]), the “Microbe Growth/on Skin after 5 washes” value is reported as 10^4 CFU and the “Microbe Growth/on Skin after 15 washes” value is 10^5 CFU. In the data set with S. aureus [3], the “Microbe Growth/Solution after 5 washes” value is 0 CFU, the “Microbe Growth/Solution after 10 washes” value is 10^2 CFU and the “Microbe Growth/Solution after 15 washes” value is listed as 10^3 CFU. Further, in the data set on S. aureus [4], the “Zone of Inhibition after 5 washes” value is on record as 10 mm, the “Zone of Inhibition after 10 washes” value turned out to be 0 mm and the “Zone of Inhibition after 15 washes” value is 0 mm.
On to `CCN(CC)C(=O)c1cccc(C)c1` [DT, N,N-diethyl-m-toluamide], for which, in [5] (setting [10]), the “% bound after 5 washes” value amounted to 10%, the “% bound after 10 washes” value stood at 5% and the “% bound after 15 washes” value came out at 2%.
Turning to `CCCC(O)C(CC)CO` (centres unmarked) [EHD, 2-ethyl-1,3-hexanediol], in data set [5], the “% bound after 5 washes” value came out at 7%, the “% bound after 10 washes” value is 2% and the “% bound after 15 washes” value was determined as 2%.
For Hyaluronic acid [HA], in data set [1], the “% bound after 5 washes” value was determined as 5%, the “% bound after 10 washes” value came out at 1% and the “% bound after 15 washes” value amounted to 0%.
For `Oc1c(Cl)cc(Cl)c(Cl)c1Cc1c(O)c(Cl)cc(Cl)c1Cl` [HCP, Hexachlorophene], in [2] (setting [9]), the “Microbe Growth/on Skin after 0 washes” value was found to be 0 CFU, the “Microbe Growth/on Skin after 5 washes” value was 10^2 CFU and the “Microbe Growth/on Skin after 15 washes” value is 10^5 CFU. Further, the absorption result in [8] is on record as “rapidly absorbed by infants”. The “toxicity / side effects of topical antimicrobial” value in the data set on microbes on skin is given as “highly toxic”. In addition, in the data set with S. aureus [3], the “Microbe Growth/Solution after 5 washes” value worked out at 0 CFU and the “Microbe Growth/Solution after 15 washes” value is recorded as 10^3 CFU. In the data set with S. aureus [4], the “Zone of Inhibition after 5 washes” value was found to be 18 mm, the “Zone of Inhibition after 10 washes” value is 0 mm and the “Zone of Inhibition after 15 washes” value is 0 mm.

The record behind these values is patent publication US5686065A, “Topical siloxane sunscreen compositions having enhanced performance and safety” (Special Advanced Biomaterials, Inc., priority 1991, dated 1997).
